# Experiments:
# Solubility in water = format: physicochemical
# [1] = Serum concentration of fispemifene in monkeys after administration in two different vehicles; format: in vivo; conditions: two female Cynomolgus monkeys, single oral dose 500 mg/kg, LC-MS/MS
# Procedure: Serum concentration of fispemifene in monkeys after administration of fispemifene in two different vehicles
# A pilot study on exposure of fispemifene in two female Cynomolgus monkeys ( #05084 and #06170) was carried out. Fispemifene was administered by single oral dosing of 500 mg/kg in two different vehicles, 0.5% carboxymethyl cellulose in water (CMC), and in corn oil. Blood samples were collected 0, 1, 2, 4, 6, 8, 12, 16 and 24 hours after dosing. Concentrations of fispemifene were determined using LC-MS/MS.
structure (smiles),measurement,setting,value
"OCCOCCOc1ccc(/C(=C(/CCCl)c2ccccc2)c2ccccc2)cc1 [Fispemifene, (Z)-2-{2-[4-(4-chloro-1,2-diphenylbut-1-enyl)phenoxy]ethoxy}ethanol]",solubility in water,Solubility in water,only sparingly soluble
same,fispemifene quantifiable in serum samples after drug administration,"[1]; CMC or corn oil vehicle, samples 1-24 h",quantifiable in all serum samples
same,"serum fispemifene concentration, corn oil vehicle relative to 0.5% CMC in aqueous solution","[1]; corn oil vs 0.5% carboxymethyl cellulose in water, 0-24 h",more than 10 fold

# Reference: patent US20070104743A1, “Formulations of fispemifene” (HORMOS MEDICAL LTD., priority 2005, published 2007)
